Experimental data published in patent publication US20120122727A1, “IN VITRO METHOD FOR PREDICTING WHETHER A COMPOUND IS GENOTOXIC IN VIVO” (priority 2009, published 2012).

Tested on: primary mouse hepatocytes
Assay: Gene expression (Affymetrix Mouse Genome 430 2.0) in primary mouse hepatocytes, true vs false GTX, 24 h and 48 h
Settings: log2, corrected for vehicle control

## O=c1c(O)c(-c2ccc(O)c(O)c2)oc2cc(O)cc(O)c12 [Q, Quercetin]
24 h average
  Gene expression data AF000969 (Cadps2): −0.5753
  Gene expression data AF022072 (Grb10): 0.3385
  Gene expression data AF065917 (Lif): −0.1024
  Gene expression data AF204959 (Cyp3a25 /// LOC622249): −1.232
  Gene expression data AF297615 (Ggta1): 0.8047
  Gene expression data AI594683 (Dmn): −0.2712
  Gene expression data AI596632 (Ptprg /// LOC632664): −0.456
  Gene expression data AI987929 (Ndrg1): 1.663
  Gene expression data AK004419 (Fbxl17): −0.01537
  Gene expression data AK005731 (1700007K13Rik): 0.6919
  Gene expression data AK007766 (1810044A24Rik): −0.04463
  Gene expression data AK007854 (1810053B23Rik): −0.9336
  Gene expression data AK009736 (Gpr137b /// LOC664862 /// LOC673335): 1.171
  Gene expression data AK010447 (Smyd3): 0.0701
  Gene expression data AK014608 (4632434l11Rik): 0.03273
  Gene expression data AK019979 (2610528E23Rik): 0.2502
  Gene expression data AV095209 (Mthfd1l): 0.8331
  Gene expression data AV141095 (1110033M05Rik): 0.2855
  Gene expression data AV173571 (1700106N22Rik): −0.2484
  Gene expression data AV219418 (Ldhb): −0.1808
  Gene expression data AV223474 (Zdhhc14): −0.2496
  Gene expression data AV298304 (Homez): 0.2496
  Gene expression data AV327248 (Zfp365 /// LOC674611): 0.3116
  Gene expression data AV377066 (9130221J18Rik): −0.4922
  Gene expression data AW240761 (Tbc1d5): −0.157
  Gene expression data AW543460 (Pard3): 0.2437
  Gene expression data AW543723: 0.4193
  Gene expression data AW986246 (Maoa): 1.388
  Gene expression data BB027848 (4732466D17Rik): −1.304
  Gene expression data BB043558 (9230114K14Rik): 0.3431
  Gene expression data BB275142 (AW456874): −0.5004
  Gene expression data BB308836 (Ppm1l): 0.1666
  Gene expression data BB318221 (Zdhhc14): −0.1479
  Gene expression data BB463610 (4632434l11Rik): −0.1026
  Gene expression data BB526605 (Mipol1): 0.09617
  Gene expression data BB770528 (Rai2): −0.3109
  Gene expression data BB821363 (Scfd2): −0.2338
  Gene expression data BC004827 (Psat1): 0.9258
  Gene expression data BC008626 (Icam1): −0.3725
  Gene expression data BC010462 (BC010462): −0.5852
  Gene expression data BC012247 (Dcxr): −0.2845
  Gene expression data BC012260 (Psmf1): −0.1689
  Gene expression data BC015270 (Hist2h3c2): −0.3924
  Gene expression data BC016073 (Cdkal1): 0.1993
  Gene expression data BC016265 (Ube2e2): 0.1622
  Gene expression data BC019882 (Acaa1b): 0.7124
  Gene expression data BC025501 (Aaas): 0.4589
  Gene expression data BC025837 (Sbk1): −0.3383
  Gene expression data BC025915 (Cova1): 0.3176
  Gene expression data BC026422 (Tgm1): 0.28
  Gene expression data BF719766 (Thyn1): 0.1596
  Gene expression data BG065754 (Ccng1): 0.4829
  Gene expression data BG066903 (Kif16b): 0.2506
  Gene expression data BG069873 (Gnb1l): 0.007867
  Gene expression data BG070887 (Gtdc1): −0.2209
  Gene expression data BG076151 (Ppm1d): −0.1367
  Gene expression data BG261907 (Large): 0.3964
  Gene expression data BI651416 (Cdc42bpg): 0.2653
  Gene expression data BI660702 (Ell3): −0.05897
  Gene expression data BM198879 (Ercc5): 0.1402
  Gene expression data BM230508 (A030007D23Rik): 0.3449
  Gene expression data NM_007987 (Fas): 0.1744
  Gene expression data NM_008522 (Ltf): −0.09593
  Gene expression data NM_008576 (Abcc1): 1.2925
  Gene expression data NM_011176 (St14): 0.5914
  Gene expression data NM_011316 (Saa4): −0.1314
  Gene expression data NM_012006 (Acot1): 1.0762
  Gene expression data NM_013866 (Zfp385): 0.06543
  Gene expression data NM_018770 (Igsf4a): 0.4689
  Gene expression data NM_021451 (Pmaip1): −0.611
  Gene expression data NM_025770 (Atg10): 0.2663
  Gene expression data NM_028803 (Gbe1): −0.2509
  Gene expression data NM_030697 (Ankrd47): 1.3142
  Gene expression data NM_053168 (Trim11): −0.02257
  Gene expression data NM_134188 (Acot2): 0.1275
  Gene expression data Y15910 (Diap2): −0.31
48 h
  Gene expression AA561726 average: 0.3473
  Gene expression AF000969 average: 0.6762
  Gene expression AF022072 average: 0.7799
  Gene expression AF033112 average: 0.02593
  Gene expression AF055573 average: 0.0039
  Gene expression AF069954 average: −0.168
  Gene expression AF297615 average: −0.02943
  Gene expression AF335325 average: −0.3547
  Gene expression AI594683 average: −0.1952
  Gene expression AI747296 average: −0.1572
  Gene expression AK005731 average: −0.8953
  Gene expression AK007854 average: 1.0645
  Gene expression AK010447 average: −0.1277
  Gene expression AK010738 average: 0.03457
  Gene expression AK014608 average: −0.3181
  Gene expression AK017734 average: −0.2231
  Gene expression AK018383 average: −0.06343
  Gene expression AK019979 average: −0.6456
  Gene expression AV095209 average: 0.0573
  Gene expression AV141095 average: −0.03573
  Gene expression AV173869 average: −0.3593
  Gene expression AV216768 average: 0.4269
  Gene expression AV219418 average: 0.7223
  Gene expression AV221299 average: 0.3941
  Gene expression AV246296 average: −0.449
  Gene expression AV251625 average: −0.2405
  Gene expression AV254764 average: −0.09113
  Gene expression AV327248 average: −0.1842
  Gene expression BB009155 average: −0.6448
  Gene expression BB027848 average: −0.5634
  Gene expression BB043558 average: 0.03817
  Gene expression BB046347 average: 0.3747
  Gene expression BB140436 average: 0.455
  Gene expression BB204486 average: 0.3211
  Gene expression BB223872 average: −0.2409
  Gene expression BB246912 average: 0.03943
  Gene expression BB275142 average: −0.5307
  Gene expression BB458460 average: −0.2505
  Gene expression BB463610 average: −0.254
  Gene expression BB730977 average: 0.127
  Gene expression BB743970 average: −0.1543
  Gene expression BB770528 average: −0.5238
  Gene expression BB781615 average: −0.3025
  Gene expression BC003284 average: −0.3991
  Gene expression BC004827 average: 0.3832
  Gene expression BC005552 average: 0.365
  Gene expression BC006713 average: 0.1419
  Gene expression BC010318 average: 0.2274
  Gene expression BC012247 average: 0.1853
  Gene expression BC012955 average: 0.25
  Gene expression BC013893 average: −0.5246
  Gene expression BC017615 average: −0.2786
  Gene expression BC019379 average: −0.03313
  Gene expression BC019882 average: −0.02177
  Gene expression BC021352 average: −1.143
  Gene expression BC022148 average: 0.2323
  Gene expression BC025169 average: 0.176
  Gene expression BC026131 average: 0.3886
  Gene expression BC027026 average: 0.3636
  Gene expression BC027121 average: 0.003767
  Gene expression BC027185 average: −0.4317
  Gene expression BE956581 average: 0.1063
  Gene expression BF719766 average: 0.1683
  Gene expression BG065754 average: −0.2692
  Gene expression BG066491 average: −0.6278
  Gene expression BG076151 average: −0.7006
  Gene expression BG076333 average: 0.2569
  Gene expression BG797099 average: −0.3185
  Gene expression BG967046 average: −0.2263
  Gene expression BI651416 average: −0.4982
  Gene expression BI966443 average: 0.1621
  Gene expression BM198879 average: −0.1382
  Gene expression BM200015 average: −0.2469
  Gene expression BM230508 average: −0.6707
  Gene expression BM936480 average: 0.1682
  Gene expression BQ174991 average: 0.5432
  Gene expression L21027 average: 0.4391
  Gene expression NM_007556 average: 0.4673
  Gene expression NM_007980 average: 1.051
  Gene expression NM_007987 average: −0.07343
  Gene expression NM_008522 average: −0.03917
  Gene expression NM_008935 average: 0.5881
  Gene expression NM_009897 average: 0.2468
  Gene expression NM_011075 average: −0.8714
  Gene expression NM_011176 average: −0.3579
  Gene expression NM_011316 average: −0.2485
  Gene expression NM_012006 average: 0.7373
  Gene expression NM_013642 average: 0.7153
  Gene expression NM_013738 average: −0.4434
  Gene expression NM_013929 average: 0.09257
  Gene expression NM_018881 average: 0.2667
  Gene expression NM_019738 average: −0.7691
  Gene expression NM_030697 average: 0.08597
  Gene expression NM_053122 average: −0.1158
  Gene expression NM_134147 average: −0.2048
  Gene expression NM_134188 average: 0.5773
  Gene expression X62701 average: 0.8426
